Converted amounts (≈) assume the structure as drawn. Values belong to the molecule of their own block, whether it stands above or below them.
How the values were obtained:
Assay in all cases: ≥ marks a high value that may be exact or a test limit, other limits are often not marked, values filed in µg/mL are converted to µM
[1] = tested on: Staphylococcus aureus ATCC 12600
[2] = tested on: Acinetobacter baumannii
[3] = tested on: Escherichia coli ATCC 25922
[4] = tested on: Escherichia coli ATCC 8739
[5] = tested on: Enterobacter cloacae
[6] = tested on: Pseudomonas aeruginosa PA14
[7] = tested on: Staphylococcus aureus
[8] = tested on: Klebsiella pneumoniae ATCC 13883
[9] = tested on: Escherichia coli KpC+001812446
[10] = tested on: Staphylococcus aureus ATCC 25923
[11] = tested on: Klebsiella pneumoniae KpC+001825971
[12] = tested on: Pseudomonas aeruginosa PAO1
[13] = tested on: Lacticaseibacillus rhamnosus 1.0936
[14] = tested on: Salmonella enterica subsp. enterica serovar Pullorum C79-13
[15] = tested on: Escherichia coli K88
[16] = tested on: Salmonella enterica subsp. enterica serovar Choleraesuis CVCC 503
[17] = tested on: Pseudomonas aeruginosa ATCC 27853
[18] = tested on: Lacticaseibacillus rhamnosus 8014
[19] = tested on: Staphylococcus aureus ATCC 29213
[20] = tested on: Salmonella enterica subsp. enterica serovar Typhimurium ATCC 14028
[21] = tested on: Staphylococcus aureus ATCC 43300
[22] = tested on: Staphylococcus epidermidis ATCC 12228
[23] = tested on: Lacticaseibacillus rhamnosus 1.9021
[24] = tested on: Streptococcus agalactiae BNCC 185941
[25] = tested on: Escherichia coli O157:H7 CICC 21530
[26] = tested on: Lacticaseibacillus rhamnosus 1.0911
[27] = tested on: Staphylococcus epidermidis C621
[28] = tested on: Candida albicans C627
[29] = tested on: Aeromonas salmonicida 97-4
[30] = tested on: Salmonella enterica serovar typhimurium MS7953s
[31] = tested on: Escherichia coli UB1005
[32] = tested on: Staphylococcus aureus C623
[33] = tested on: Pseudomonas aeruginosa K799
[34] = tested on: Pseudomonas aeruginosa Z61
[35] = tested on: Salmonella enterica subsp. enterica serovar Typhimurium ATCC 14028s
[36] = tested on: Aeromonas salmonicida 99-1
[37] = tested on: Escherichia coli DC2
[38] = tested on: Escherichia coli CGSC 4908
[39] = tested on: Staphylococcus aureus CCT 6538
[40] = tested on: Salmonella enterica subsp. enterica serovar Choleraesuis ATCC 10708
[41] = tested on: Bacillus cereus ATCC 11778
[42] = tested on: Pseudomonas aeruginosa ATCC 13388
[43] = tested on: Enterococcus faecium CCT 5079
[44] = tested on: Escherichia coli ATCC 11775
[45] = tested on: Enterococcus hirae ATCC 10541
[46] = tested on: Escherichia coli CCT 1457
[47] = tested on: Pseudomonas aeruginosa ATCC 15422
[48] = tested on: Streptococcus pneumoniae ATCC 11733
[49] = tested on: Micrococcus luteus ATCC 4698
[50] = tested on: Bacillus thuringiensis ATCC 10792
[51] = tested on: Staphylococcus aureus CCT 2580
[52] = tested on: Streptococcus mutans AU159
[53] = tested on: Mycobacterium tuberculosis H37Rv
[54] = tested on: Mycobacterium tuberculosis CAS3
[55] = tested on: Mycobacterium tuberculosis WXY

MIC [1]: 4 µM (≈ 8.73 µg/mL) | MIC [2]: 4 µM (≈ 8.73 µg/mL) | MIC [3]: 4 µM (≈ 8.73 µg/mL) | MIC [4]: 14.7 µM (≈ 32 µg/mL) | MIC [5]: ≥ 32 µM | MIC [6]: 4 µM (≈ 8.73 µg/mL) | MIC [7]: 16 µM (≈ 34.9 µg/mL) | MIC [8]: 8 µM (≈ 17.5 µg/mL) | MIC [9]: 2 µM (≈ 4.37 µg/mL) | MIC [10]: 16 µM (≈ 34.9 µg/mL) | MIC [11]: ≥ 32 µM | MIC [12]: 4 µM (≈ 8.73 µg/mL)
Structure (SMILES): CC[C@H](C)[C@H](NC(=O)[C@H](CCCCN)NC(=O)[C@H](CCCCN)NC(=O)CNC(=O)[C@H](CC(C)C)NC(=O)[C@H](CCCN=C(N)N)NC(=O)[C@H](CCCCN)NC(=O)[C@H](CC(C)C)NC(=O)[C@H](CC(C)C)NC(=O)[C@H](CCCCN)NC(=O)[C@H](CCSC)NC(=O)[C@@H]1CCCN1)C(=O)N[C@@H](CCCN=C(N)N)C(=O)N[C@@H](CC(C)C)C(=O)N[C@@H](C)C(=O)N[C@@H](C)C(=O)N[C@@H](C)C(=O)N[C@@H](Cc1ccccc1)C(=O)N[C@@H](CCCCN)C(=O)O [PMKLLKRLGKKIRLAAAFK]

MIC [13]: ≥ 128 µM | MIC [14]: 8 µM (≈ 10.3 µg/mL) | MIC [15]: 8 µM (≈ 10.3 µg/mL) | MIC [17]: 32 µM (≈ 41 µg/mL) | MIC [18]: ≥ 128 µM | MIC [19]: > 128 µM | MIC [20]: 64 µM (≈ 82.1 µg/mL) | MIC [21]: > 128 µM | MIC [22]: > 128 µM | MIC [23]: ≥ 128 µM | MIC [24]: ≥ 128 µM | MIC [12]: 32 µM (≈ 41 µg/mL) | MIC [25]: ≥ 64 µM | MIC [26]: ≥ 128 µM
Structure (SMILES): CC(C)C[C@H](NC(=O)[C@H](CCCCN)NC(=O)CNC(=O)[C@H](CCCCN)NC(=O)[C@H](CC(C)C)NC(=O)[C@H](Cc1c[nH]c2ccccc12)NC(=O)[C@H](CC(C)C)NC(=O)[C@H](CCCCN)NC(=O)CNC(=O)[C@H](CCCCN)NC(=O)[C@@H](N)CC(C)C)C(N)=O [LKGKLWLKGKL]
MIC [16]: ≥ 128 µM

MIC [27]: 28.3 µM (≈ 63.9 µg/mL) | MIC [28]: 28.3 µM (≈ 63.9 µg/mL) | MIC [29]: ≥ 56.6 µM | MIC [30]: 14.1 µM (≈ 32 µg/mL) | MIC [31]: 28.3 µM (≈ 63.9 µg/mL) | MIC [32]: 28.3 µM (≈ 63.9 µg/mL) | MIC [33]: 28.3 µM (≈ 63.9 µg/mL) | MIC [34]: 28.3 µM (≈ 63.9 µg/mL) | MIC [35]: 28.3 µM (≈ 63.9 µg/mL) | MIC [36]: 28.3 µM (≈ 63.9 µg/mL) | MIC [37]: 28.3 µM (≈ 63.9 µg/mL) | MIC [38]: 28.3 µM (≈ 63.9 µg/mL)
Structure (SMILES): CC(=O)[C@H](C)NC(=O)[C@H](Cc1ccccc1)NC(=O)[C@H](Cc1cnc[nH]1)NC(=O)[C@H](CCCNC(=N)N)NC(=O)[C@H](CCC(N)=O)NC(=O)[C@H](CO)NC(=O)[C@H](CC(C)C)NC(=O)[C@H](CCCNC(=N)N)NC(=O)[C@H](CCC(=O)O)NC(=O)CNC(=O)[C@H](CCCCN)NC(=O)[C@@H](NC(=O)[C@H](Cc1ccccc1)NC(=O)[C@H](Cc1c[nH]c2ccccc12)NC(=O)[C@H](CCCCN)NC(=O)[C@H](CCCCN)NC(=O)[C@H](Cc1c[nH]c2ccccc12)NC(=O)CN)[C@@H](C)O [GWKKWFTKGERLSQRHFA]

MIC [39]: 2.62 µM (≈ 4 µg/mL) | MIC [41]: 10.5 µM (≈ 16 µg/mL) | MIC [3]: 2.62 µM (≈ 4 µg/mL) | MIC [42]: ≥ 41.2 µM | MIC [43]: 5.24 µM (≈ 8 µg/mL) | MIC [20]: 20.3 µM (≈ 31 µg/mL) | MIC [44]: 5.24 µM (≈ 8 µg/mL) | MIC [45]: 5.24 µM (≈ 8 µg/mL) | MIC [46]: 2.62 µM (≈ 4 µg/mL) | MIC [47]: 10.5 µM (≈ 16 µg/mL) | MIC [48]: 1.31 µM (≈ 2 µg/mL) | MIC [49]: 2.62 µM (≈ 4 µg/mL) | MIC [50]: 5.24 µM (≈ 8 µg/mL) | MIC [51]: 2.62 µM (≈ 4 µg/mL) | MIC [22]: 2.62 µM (≈ 4 µg/mL) | MIC [52]: 2.62 µM (≈ 4 µg/mL) | MIC [10]: 15.1 µM (≈ 23 µg/mL)
Structure (SMILES): CC[C@H](C)[C@H](N)C(=O)N[C@@H](CC(N)=O)C(=O)N[C@@H](Cc1c[nH]c2ccccc12)C(=O)N[C@@H](CC(C)C)C(=O)N[C@@H](C)C(=O)N[C@H](C(=O)N[C@@H](C)C(=O)N[C@@H](CCCCN)C(=O)N[C@@H](CCCCN)C(=O)N[C@H](C(=O)N[C@@H](C)C(=O)NCC(=O)N[C@@H](CCSC)C(=O)N[C@@H](CC(C)C)C(N)=O)C(C)C)[C@@H](C)CC [INWLAIAKKVAGML]
MIC [40]: 10.5 µM (≈ 16 µg/mL)

MIC [53]: ≥ 40.7 µM | MIC [54]: ≥ 40.7 µM | MIC [55]: ≥ 40.7 µM
Structure (SMILES): CC(C)C[C@H](NC(=O)[C@H](C)NC(=O)[C@H](C)NC(=O)[C@@H](NC(=O)[C@H](C)N)C(C)C)C(=O)N[C@@H](CC(C)C)C(=O)N[C@@H](CCCN=C(N)N)C(=O)N[C@@H](Cc1c[nH]c2ccccc12)C(=O)N[C@@H](Cc1c[nH]c2ccccc12)C(=O)N[C@@H](CO)C(=O)N[C@@H](CCCN=C(N)N)C(=O)N[C@@H](Cc1c[nH]c2ccccc12)C(=O)N[C@@H](Cc1c[nH]c2ccccc12)C(=O)N[C@@H](C)C(=O)N[C@@H](C)C(=O)O [AVAALLRWWSRWWAA]

— DBAASP
